Experimental data reported in the supplement of paper PMC11061612.

Legend:
[1] = test system: SW620 (Colorectal Carcinoma); test: combination Emax (second highest fraction inhibited in the dose matrix, 72 h); higher = more inhibition; extreme values may be limits of the assay
Outline: (§1)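 Cell lines in DMEM/F12 or RPMI with 10% FBS were plated in 1536-well plates, held 24 hours at 37°C, 5% CO2, then given two-drug dose matrices for 72 hours (DMSO typically 0.2%). Viability was read by CellTiter-Glo 2.0 luminescence and scaled as inhibition from 0 (vehicle wells) to 1 (blank wells). Combination Emax is the second-highest inhibition in the matrix; Bliss excess is observed combination effect minus expected EA + EB − EA·EB, EA and EB being single-agent effects.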

[2] = test system: NCI-H1703 (Squamous Cell Lung Carcinoma); test: as above
Outline: as §1

[3] = test system: EB2 (Burkitt's Lymphoma); test: as above
Outline: as §1

[4] = test system: LU-165 (Small Cell Lung Carcinoma); test: as above
Outline: as §1

[5] = test system: 22RV1 (Prostate Carcinoma); test: as above
Outline: as §1

[6] = test system: JHU-022 (Oral Cavity Carcinoma); test: as above
Outline: as §1

[7] = test system: IM-9 (Non-Cancerous); test: as above
Outline: as §1

[8] = test system: LS-411N (Colorectal Carcinoma); test: Bliss excess, mean over the matrix (fraction); higher = more synergy
Outline: as §1

[9] = test system: KP-N-YN (Neuroblastoma); test: as above
Outline: as §1

[10] = test system: NB13 (Neuroblastoma); test: as above
Outline: as §1

[11] = test system: GA-10 (Burkitt's Lymphoma); test: as above
Outline: as §1

[12] = test system: CA46 (Burkitt's Lymphoma); test: as above
Outline: as §1

[13] = test system: AU565 (Breast Carcinoma); test: as above
Outline: as §1

[14] = test system: ESO26 (Esophageal Adenocarcinoma); test: as above
Outline: as §1

[15] = test system: RH-41 (Rhabdomyosarcoma); test: as above
Outline: as §1

[16] = test system: KYSE-140 (Esophageal Squamous Cell Carcinoma); test: as above
Outline: as §1

[17] = test system: A101D (Melanoma); test: as above
Outline: as §1

[18] = test system: huH-1 (Hepatocellular Carcinoma); test: as above
Outline: as §1

[19] = test system: NCI-H2228 (Lung Adenocarcinoma); test: as above
Outline: as §1

[20] = test system: OACp4C (Esophageal Adenocarcinoma); test: as above
Outline: as §1
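For Bliss excess, mean over the matrix in this document: after 72 h of two-drug dosing.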

SMILES	combination Emax [1]	combination Emax [2]	combination Emax [3]	combination Emax [4]	combination Emax [5]	combination Emax [6]	combination Emax [7]	Bliss excess [8]	Bliss excess [9]	Bliss excess [10]	Bliss excess [11]	Bliss excess [12]	Bliss excess [13]	Bliss excess [14]	Bliss excess [15]	Bliss excess [16]	Bliss excess [17]	Bliss excess [18]	Bliss excess [19]	Bliss excess [20]
CN(CCO)CC[C@H](CSc1ccccc1)Nc1ccc(S(=O)(=O)NC(=O)c2ccc(N3CCC([C@@H](O)c4ccccc4-c4ccc(Cl)cc4)CC3)cc2)cc1S(=O)(=O)C(F)(F)F [AZD4320] + C[C@@H](Nc1cc(F)cc(F)c1)c1cc(C(=O)N(C)C)cc2c(=O)cc(N3CCOCC3)oc12 [AZD8186] (first compound max 1 µM, 7x7, partner max 3 µM)	0.84	0.531	0.536	0.717	0.456	0.446	0.972	0.031	-0.0097	0.0205	0.0166	0.0317	0.035	0.0217	0.0706	-0.0136	0.0831	-0.0461	-0.0301	–
CN(CCO)CC[C@H](CSc1ccccc1)Nc1ccc(S(=O)(=O)NC(=O)c2ccc(N3CCC([C@@H](O)c4ccccc4-c4ccc(Cl)cc4)CC3)cc2)cc1S(=O)(=O)C(F)(F)F [AZD4320] + Nc1ccn([C@@H]2O[C@H](CO)[C@@H](O)C2(F)F)c(=O)n1 [Gemcitabine] (first compound max 1 µM, 7x7, partner max 0.3 µM)	0.871	0.915	0.932	0.828	0.748	0.787	1	–	–	0.0074	–	–	–	–	–	–	–	–	–	–
COc1nnc2ccc(N3CCC(c4ccc(OCCN5CCN(C)C(=O)[C@H]5C)cc4)CC3)nn12 [AZD5153] + CN(CC[C@H](CSC1=CC=CC=C1)NC2=C(C=C(C=C2)S(=O)(=O)NC(=O)C3=CC=C(C=C3)N4CCC(CC4)[C@H](C5=CC=CC=C5C6=CC=C(C=C6)Cl)O)S(=O)(=O)C(F)(F)F)CCO [AZD4320] (first compound max 1 µM, 7x7, partner max 1 µM)	0.84	–	–	–	–	–	–	0.0969	–	–	-0.0394	-0.0053	0.0811	0.0233	0.0427	0.0588	0.0648	-0.0206	0.0351	-0.0404
Cc1cc2ncnn2cc1Nc1ncc2c(n1)n(C1CCOCC1)c(=O)n2C [AZD7648] + COc1cc([C@@H]2c3cc4c(cc3[C@@H](O[C@@H]3O[C@@H]5CO[C@@H](C)O[C@H]5[C@H](O)[C@H]3O)[C@H]3COC(=O)[C@H]23)OCO4)cc(OC)c1O [Etoposide] (first compound max 10 µM, 7x7, partner max 10 µM)	0.95	0.892	0.953	0.495	0.666	0.577	1	–	0.0446	-0.0803	–	–	–	–	–	–	–	–	–	–
CC(=O)c1c(C)c2cnc(Nc3ccc(N4CCNCC4)cn3)nc2n(C2CCCC2)c1=O [Palbociclib] + CN(CC[C@H](CSC1=CC=CC=C1)NC2=C(C=C(C=C2)S(=O)(=O)NC(=O)C3=CC=C(C=C3)N4CCC(CC4)[C@H](C5=CC=CC=C5C6=CC=C(C=C6)Cl)O)S(=O)(=O)C(F)(F)F)CCO [AZD4320] (first compound max 10 µM, 7x7, partner max 1 µM)	0.693	–	–	–	–	–	–	-0.0089	–	–	-0.0385	-0.0474	-0.0375	-0.0562	0.0142	-0.0355	0.0351	-0.0294	-0.0627	-0.144
N#Cc1cnc(Nc2cc(NC[C@H]3CNCCO3)c(C(F)(F)F)cn2)cn1 [SRA737] + C=CCn1c(=O)c2cnc(Nc3ccc(N4CCN(C)CC4)cc3)nc2n1-c1cccc(C(C)(C)O)n1 [AZD1775] (first compound max 10 µM, partner max 1 µM)	0.587	0.972	0.911	0.598	0.516	0.528	1	–	0.0762	0.0322	–	–	–	–	–	–	–	–	–	–
N#Cc1cnc(Nc2cc(NC[C@H]3CNCCO3)c(C(F)(F)F)cn2)cn1 [SRA737] + CCc1c2c(nc3ccc(O)cc13)-c1cc3c(c(=O)n1C2)COC(=O)[C@]3(O)CC [SN-38] (first compound max 10 µM, 7x7, partner max 0.3 µM)	0.955	0.929	0.929	0.647	0.685	0.759	1	–	-0.0189	0.129	–	–	–	–	–	–	–	–	–	–
N#Cc1cnc(Nc2cc(NC[C@H]3CNCCO3)c(C(F)(F)F)cn2)cn1 [SRA737] + Nc1ccn([C@@H]2O[C@H](CO)[C@@H](O)C2(F)F)c(=O)n1 [Gemcitabine] (first compound max 10 µM, 7x7, partner max 0.3 µM)	0.889	0.952	0.945	0.544	0.734	0.685	1	–	–	–	–	–	–	–	–	–	–	–	–	–
N#Cc1cnc(Nc2cc(NC[C@H]3CNCCO3)c(C(F)(F)F)cn2)cn1 [SRA737] + O=c1[nH]cc(F)c(=O)[nH]1 [5-Fluorouracil] (first compound max 10 µM, 7x7, partner max 20 µM)	0.422	0.885	0.88	0.413	0.616	0.513	1	–	-0.0468	-0.0699	–	–	–	–	–	–	–	–	–	–
C[C@@H](c1ccc2nccn2c1)n1nnc2ncc(-c3cnn(C)c3)nc21 [Savolitinib] + CN(CC[C@H](CSC1=CC=CC=C1)NC2=C(C=C(C=C2)S(=O)(=O)NC(=O)C3=CC=C(C=C3)N4CCC(CC4)[C@H](C5=CC=CC=C5C6=CC=C(C=C6)Cl)O)S(=O)(=O)C(F)(F)F)CCO [AZD4320] (first compound max 1 µM, 7x7, partner max 1 µM)	0.207	–	–	–	–	–	–	-0.0069	–	–	-0.0196	-0.0488	0.0022	-0.0467	-0.0093	0.0044	-0.0202	-0.0456	-0.0527	-0.0291
